{"source": "paper PMC9709406", "about": "(Frontiers in Pharmacology, 2022)", "key": {"[1]": {"test_system": "KYSE450 cell-derived xenograft", "assay": "In vivo cell-derived xenograft (CDX) mouse model", "parameters": "species or system nu/nu nude mice", "experimental": "Mice were housed under specific pathogen-free conditions. All animal experiments were approved by the Bioethics Committee of Zhengzhou University and followed the guidelines set by the Institutional Animal Care and Use Committee (CUHCI2019002, CUHCI2021001, and CUHCI2021005). To generate the cell-derived xenograft (CDX) mouse model, nu/nu nude mice (Vital River Labs., Beijing, China) were subcutaneously injected with 5 × 10^6 cells (KYSE450). […] Tumor volume was calculated as follows: length × width × height × 0.5. Tumor size and mice weight were measured every 2–3 days. Compounds were administered for 15 days. The tumors were extracted for weighting, immunohistochemistry and immunofluorescence studies.\nFrozen sections were washed three times with PBS and incubated overnight at 4°C with Ki-67 antibody. The next day, sections were washed three times and incubated with secondary antibody in PBS. After several washes, slides were counterstained with DAPI (Solarbio). The sections were mounted on microscope and imaged using fluorescent microscopy (Nikon, Tokyo, Japan). Image-Pro Plus 6.0 was used to analyze the fluorescence intensity.\nHistological sections were dewaxed, antigens were repaired and sealed with serum in sequence. Next, histological sections were incubated overnight with diluted primary antibodies (1 : 500 dilution), and the control specimens were treated with PBS. The sections were washed 3 times with PBS. Secondary antibody was added and the system was then placed at 37 °C for half an hour. The systems were washed 3 times with PBS. Color developing agent was added. After washing with water, the system was soaked in hematoxylin for 0.5 min for dyeing. The re-dyed slides were washed with water, and then dehydrated. Neutral gums were dropped on the side of the tissue. The slices were then covered with cover glass, sealed and placed in a ventilator for drying. Immunohistochemical staining analysis was then carried out with Image-Pro Plus 6.0."}, "KYSE70 cells": {"test_system": "KYSE70 cells", "assay": "MTT assay, KYSE70", "type": "cell-based, human", "outline": "(§1)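 Viability was assessed by MTT at 490 nm after two days of compound treatment (0–50 μM) in RPMI-1640 with 10% FBS.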"}, "[2]": {"biological_target": "T1, EGFR wild protein (H672-A1210) (Homo sapiens, UniProt P00533)", "T1 construct": "purchased Active MOTIF 31165", "T1 sequence (P00533 672-1210)": "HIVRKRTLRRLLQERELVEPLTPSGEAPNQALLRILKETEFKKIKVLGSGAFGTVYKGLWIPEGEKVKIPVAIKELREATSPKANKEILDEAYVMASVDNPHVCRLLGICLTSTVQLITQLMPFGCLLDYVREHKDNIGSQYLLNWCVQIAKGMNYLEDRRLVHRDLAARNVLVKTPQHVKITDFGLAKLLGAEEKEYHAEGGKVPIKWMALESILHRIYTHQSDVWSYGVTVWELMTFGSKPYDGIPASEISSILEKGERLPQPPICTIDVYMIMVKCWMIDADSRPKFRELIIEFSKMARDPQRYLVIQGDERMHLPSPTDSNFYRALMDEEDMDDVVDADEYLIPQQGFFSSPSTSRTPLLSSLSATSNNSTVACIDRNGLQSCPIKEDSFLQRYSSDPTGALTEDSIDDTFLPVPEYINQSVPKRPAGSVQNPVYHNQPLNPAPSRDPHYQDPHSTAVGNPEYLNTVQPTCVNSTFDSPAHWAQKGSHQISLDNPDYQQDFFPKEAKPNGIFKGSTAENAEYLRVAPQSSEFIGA", "assay": "EGFR protein affinity determined with SPR", "type": "binding", "conditions": "immobilized wild-type EGFR", "experimental": "Firstly, EGFR protein (protein concentration : 0.468 μg/μL, Active MOTIF, cat: 31165, lot: 28215004) was covalently immobilized onto a CM5 sensor chip at densities of 2000 response units. […] During the drug-protein interaction, the change of the refractive index was measured in real-time which would allow the plotting of the results of interaction as response units versus time. The interaction results were analyzed under a BIA evaluation 3.0 software."}, "H1650TR cells": {"test_system": "H1650TR cells", "assay": "MTT assay, taxol-resistant H1650TR", "type": "cell-based", "conditions": "Homo sapiens, NCI-H1650, 48 h, value in parentheses in H1650 column", "text": "The human cancer cells (H1650, H1975, KYSE70, KYSE410 and KYSE450) were purchased from the Type Culture Collection of the Chinese Academy of Sciences (Shanghai, China). The human immortalized normal esophageal epithelial cell line SHEE was donated by Dr. Enmin Li from the Laboratory of Tumor Pathology (Shantou University Medical College, Shantou, Guangdong, China). Drug-resistant cells (H1650TR, H1975OR, KYSE70TR, KYSE410TR and KYSE450TR) were induced by China-US (Henan) Hormel Cancer Institute. The cellswere cultured in RPMI-1640 complete growth medium containing 100 U/mL penicillin-streptomycin and 10% FBS. Based on the above medium formula, 100 nm/L paclitaxel was added in taxol-resistant cells, 100 nm/L gefitinib was added in gefitinib-resistant cells. The cells were incubated at 37 °C in an atmosphere containing 5% of CO2. The compounds were dissolved in DMSO to make a 50 mM stock solution and were diluted to the concentration of working solutions with complete growth medium before administration.\nCells were seeded in 96-well plates with 2,200–2,500 cells/well in100 μL. One day after seeding, test compounds with the concentration between 0 and 50 μM were added with 0.1% DMSO as control. Five multiple wells for each concentration. After 48 h, MTT was added and incubated in the plate for 1–4 h in the incubator. The absorbance at 490 nm was measured using a microplate reader (Thermo)."}, "H1650 cells": {"test_system": "H1650 cells", "assay": "MTT assay for cell proliferation and cytotoxicity, H1650", "type": "cell-based", "conditions": "Homo sapiens, NCI-H1650, 48 h, H1650, n = 5", "outline": "as §1"}, "KYSE450TR cells": {"test_system": "KYSE450TR cells", "assay": "Annexin V/PI flow cytometry for apoptosis, KYSE450TR", "type": "cell-based, human", "conditions": "48 h", "experimental": "Cell-apoptosis analysis was carried out by flow cytometry using the Annexin V/PI apoptosis methods. […] Cells were harvested and incubated with 250 μL of 1 × Annexin V binding buffer containing 5 μL PI and 5 μL FITC Annexin V (final concentration 1.8 μg/ml, Biolegend (cat: 640945) for 15 min at room temperature in dark. 200 µL of 1 × binding buffer was added for flow cytometry analysis (BD FACSCalibur™ Flow Cytometer)."}, "EGFR": {"biological_target": "T2, EGFR (Homo sapiens, UniProt P00533)", "T2 construct": "purchased Active MOTIF", "T2 sequence (P00533 25-1210)": "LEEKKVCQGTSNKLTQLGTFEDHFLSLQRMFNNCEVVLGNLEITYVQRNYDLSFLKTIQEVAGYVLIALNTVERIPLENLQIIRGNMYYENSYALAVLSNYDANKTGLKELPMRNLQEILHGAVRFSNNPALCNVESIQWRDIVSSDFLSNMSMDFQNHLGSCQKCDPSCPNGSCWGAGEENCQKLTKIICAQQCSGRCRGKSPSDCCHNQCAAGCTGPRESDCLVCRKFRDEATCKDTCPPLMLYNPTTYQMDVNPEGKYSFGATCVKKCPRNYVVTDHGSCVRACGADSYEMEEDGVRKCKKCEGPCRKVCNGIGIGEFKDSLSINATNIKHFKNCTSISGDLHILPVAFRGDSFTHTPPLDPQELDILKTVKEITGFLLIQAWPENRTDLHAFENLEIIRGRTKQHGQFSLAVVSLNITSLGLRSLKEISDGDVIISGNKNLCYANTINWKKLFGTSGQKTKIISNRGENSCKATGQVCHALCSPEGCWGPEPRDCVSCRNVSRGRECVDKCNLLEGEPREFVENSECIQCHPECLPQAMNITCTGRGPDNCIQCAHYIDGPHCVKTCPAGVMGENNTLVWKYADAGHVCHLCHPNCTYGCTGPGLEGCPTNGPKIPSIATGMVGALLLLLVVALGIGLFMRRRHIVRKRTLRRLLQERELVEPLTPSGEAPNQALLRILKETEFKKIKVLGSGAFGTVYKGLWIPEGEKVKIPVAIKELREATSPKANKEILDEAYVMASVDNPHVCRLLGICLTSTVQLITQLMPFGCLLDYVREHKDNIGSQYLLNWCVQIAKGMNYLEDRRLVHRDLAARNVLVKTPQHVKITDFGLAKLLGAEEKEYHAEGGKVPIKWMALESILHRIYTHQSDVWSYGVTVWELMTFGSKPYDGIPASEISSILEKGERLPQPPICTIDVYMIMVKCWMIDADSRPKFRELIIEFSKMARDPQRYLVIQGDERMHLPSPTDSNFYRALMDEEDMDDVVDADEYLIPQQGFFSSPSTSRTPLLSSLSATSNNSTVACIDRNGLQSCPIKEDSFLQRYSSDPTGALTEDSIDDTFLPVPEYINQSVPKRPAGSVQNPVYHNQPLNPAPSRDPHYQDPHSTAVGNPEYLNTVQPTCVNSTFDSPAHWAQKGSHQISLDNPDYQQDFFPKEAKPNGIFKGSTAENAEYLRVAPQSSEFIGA", "assay": "EGFR kinase assay (ELISA)", "type": "biochemical", "conditions": "25°C", "outline": "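ELISA-format tyrosine kinase kit assay with commercially sourced EGFR enzyme. Active kinase and compounds were incubated in 1× reaction buffer with 20 μM substrate at 25 °C for 1 h and 2 h. Absorbance was read at 450 nm.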"}, "[3]": {"test_system": "EGFR-TK pathway in KYSE450 cells", "assay": "Western blot of EGFR-TK pathway proteins, KYSE450", "type": "cell-based, human", "conditions": "KYSE450, 3 μM", "experimental": "Cells treated with 1% DMSO were used as control. Then the cells were harvested and total proteins were extracted. Total proteins were separated by 12% SDS polyacrylamide gel electrophoresis and transferred onto PVDF membranes. The membrane was blocked for 1 h, then incubated overnight with a 1 : 1000 dilution of anti-EGFR, anti-p-EGFR (Tyr1068/Tyr1086), anti-Erk1/2, and anti-p-Erk1/2 (Thr202/Tyr204), or 1 : 3000 dilution of anti-GAPDH primary antibody at 4°C. 1 : 3000 anti-rabbit secondary antibodies incubated for 2 h at room temperature. Protein bands were developed by chemiluminescence."}, "[4]": {"conditions": "nude mice, 50 mg/kg i.p. every day, 15 days, vs control group and icotinib group"}}, "note": "Values joined by “and” are separate entries in the source; they are usually repeats but may differ in a detail not shown here. Equal values may be shown once. Read-outs that look alike come from different tables or passages of the source."}
{"smiles": "FC(F)(F)c1ccc(-n2cc(-c3cccc(Nc4ncnc5cc6c(cc45)OCCOCCOCCO6)c3)nn2)cc1", "note": "[compound 3l]", "values": [{"measurement": "expression of proliferation marker Ki-67 in tumor", "setting": "[1]; 50 mg/kg i.p., immunofluorescence", "result": "decreased significantly"}, {"measurement": "expression of P-ERK (Tyr202/204) in tumor", "setting": "[1]; 50 mg/kg i.p., immunohistochemistry", "result": "decreased significantly"}, {"measurement": "ESCC tumor volume", "setting": "[1]; [4]", "result": "markedly reduced"}, {"measurement": "average tumor weight", "setting": "[1]; [4]", "result": "markedly reduced"}, {"measurement": "IC50", "setting": "KYSE70 cells; Homo sapiens, KYSE-70, MTT, 48 h, KYSE70, n = 5", "result": "4.25 ± 0.21", "unit": "µM"}, {"measurement": "blank-corrected absorbance 490 nm relative to control (fraction)", "setting": "KYSE70 cells; KYSE70, concentration 2.25", "result": 0.9298}, {"measurement": "inhibition (1 minus fraction of control)", "setting": "KYSE70 cells; KYSE70, concentration 2.25", "result": 0.07024}, {"measurement": "blank-corrected absorbance 490 nm relative to control (fraction)", "setting": "KYSE70 cells; KYSE70, concentration 4.5", "result": 0.4365}, {"measurement": "inhibition (1 minus fraction of control)", "setting": "KYSE70 cells; KYSE70, concentration 4.5", "result": 0.5635}, {"measurement": "blank-corrected absorbance 490 nm relative to control (fraction)", "setting": "KYSE70 cells; KYSE70, concentration 9", "result": 0.2659}, {"measurement": "inhibition (1 minus fraction of control)", "setting": "KYSE70 cells; KYSE70, concentration 9", "result": 0.7341}, {"measurement": "Rmax(RU)", "setting": "[2]", "result": 25.21, "unit": "RU"}, {"measurement": "Kd", "setting": "[2]; 25°C", "result": "8.23 µM and 8.24 µM"}, {"measurement": "IC50", "setting": "H1650TR cells", "result": 8.43, "unit": "µM"}, {"measurement": "IC50", "setting": "H1650 cells", "result": "4.4 ± 0.32", "unit": "µM"}, {"measurement": "proportion of apoptotic cells", "setting": "KYSE450TR cells; 5 μM", "result": 32.12, "unit": "%"}, {"measurement": "proportion of apoptotic cells", "setting": "KYSE450TR cells; 10 μM", "result": 83.69, "unit": "%"}, {"measurement": "IC50", "setting": "EGFR; incubation 1 h, read-out: IC50 EGFR 1 h", "result": 0.42, "unit": "µM"}, {"measurement": "IC50", "setting": "EGFR; incubation 2 h, read-out: IC50 EGFR 2 h", "result": 1.67, "unit": "µM"}, {"measurement": "EGFR (Tyr1068) protein levels, 3l group compared with icotinib group", "setting": "[3]", "result": "no obvious difference"}, {"measurement": "ERK1/2 protein levels", "setting": "[3]; vs control", "result": "lower than the control at 0.5, 1, 2, 3, and 6 h"}, {"measurement": "P-EGFR (Tyr1068) protein levels", "setting": "[3]; vs control", "result": "lower than the control at 1 h"}, {"measurement": "P-EGFR (Tyr1086) protein levels", "setting": "[3]; vs control", "result": "lower than the control at 0.5, 1, 2, 3, and 6 h"}, {"measurement": "P-ERK1/2 (Thr202/Tyr204) protein levels", "setting": "[3]; vs control", "result": "lower than the control at 0.5, 1, 2, 3, and 6 h"}]}
